Test results taken from the NIST ThermoML archive (doi:10.1016/j.jct.2016.07.011).
± gives the expanded uncertainty stated by the source.

Conditions: Liquid; for mass density / viscosity: 101.33 kPa; for mass density: Vibrating tube method; for viscosity: Falling or rolling sphere viscometry; for vapor or sublimation pressure: Ebulliometric method (Recirculating still)

OCC(F)(F)C(F)(F)C(F)(F)C(F)F [2,2,3,3,4,4,5,5-octafluoro-1-pentanol]
mass density (293.15 K): 1674.2 ± 2 kg/m3 | viscosity (295.65 K): 13.11 ± 0.18 mPa·s | viscosity (297.55 K): 12.16 ± 0.18 mPa·s | viscosity (300.15 K): 10.64 ± 0.17 mPa·s | mass density (301.55 K): 1667 ± 2 kg/m3 | viscosity (302.15 K): 9.897 ± 0.17 mPa·s | viscosity (304.15 K): 8.739 ± 0.16 mPa·s | viscosity (306.15 K): 8.04 ± 0.16 mPa·s | mass density (306.15 K): 1659 ± 2 kg/m3 | viscosity (307.65 K): 7.416 ± 0.15 mPa·s | mass density (309.05 K): 1655.2 ± 2 kg/m3 | viscosity (309.15 K): 7.072 ± 0.15 mPa·s | viscosity (311.65 K): 6.29 ± 0.15 mPa·s | mass density (312.65 K): 1649.2 ± 2 kg/m3 | viscosity (313.15 K): 5.94 ± 0.15 mPa·s | mass density (316.15 K): 1643 ± 2 kg/m3 | viscosity (318.15 K): 4.822 ± 0.15 mPa·s | mass density (319.35 K): 1636.4 ± 2 kg/m3 | viscosity (323.15 K): 3.855 ± 0.14 mPa·s | mass density (323.25 K): 1630.4 ± 2 kg/m3 | mass density (327.05 K): 1623.2 ± 2 kg/m3 | viscosity (328.15 K): 3.298 ± 0.14 mPa·s | mass density (330.65 K): 1617.8 ± 2 kg/m3 | viscosity (333.15 K): 2.782 ± 0.14 mPa·s | mass density (334.35 K): 1609.6 ± 2 kg/m3 | mass density (338.25 K): 1603.8 ± 2 kg/m3 | mass density (342.25 K): 1596 ± 2 kg/m3 | vapor or sublimation pressure (413.25 K): 101.3 ± 10 kPa | vapor or sublimation pressure (413.57 K): 101.3 ± 10 kPa

OCC(F)(F)C(F)F [2,2,3,3-tetrafluoro-1-propanol]
mass density (293.15 K): 1493.2 ± 2 kg/m3 | viscosity (295.65 K): 5.029 ± 0.15 mPa·s | viscosity (298.65 K): 4.489 ± 0.14 mPa·s | viscosity (300.15 K): 4.274 ± 0.14 mPa·s | mass density (301.55 K): 1482.8 ± 2 kg/m3 | viscosity (302.15 K): 3.794 ± 0.14 mPa·s | viscosity (304.15 K): 3.595 ± 0.14 mPa·s | viscosity (306.15 K): 3.26 ± 0.14 mPa·s | mass density (306.15 K): 1474.2 ± 2 kg/m3 | viscosity (307.65 K): 3.067 ± 0.14 mPa·s | mass density (309.05 K): 1468.6 ± 2 kg/m3 | viscosity (309.15 K): 2.954 ± 0.14 mPa·s | viscosity (311.65 K): 2.703 ± 0.14 mPa·s | mass density (312.65 K): 1460.2 ± 2 kg/m3 | viscosity (313.15 K): 2.568 ± 0.14 mPa·s | mass density (316.15 K): 1454.2 ± 2 kg/m3 | viscosity (318.15 K): 2.153 ± 0.14 mPa·s | mass density (319.35 K): 1447.6 ± 2 kg/m3 | viscosity (323.15 K): 1.848 ± 0.14 mPa·s | mass density (323.25 K): 1441.8 ± 2 kg/m3 | mass density (327.05 K): 1434 ± 2 kg/m3 | viscosity (328.15 K): 1.623 ± 0.14 mPa·s | mass density (330.65 K): 1427.4 ± 2 kg/m3 | viscosity (333.15 K): 1.408 ± 0.14 mPa·s | mass density (334.35 K): 1416.8 ± 2 kg/m3 | mass density (338.25 K): 1409 ± 2 kg/m3 | mass density (342.25 K): 1401 ± 2 kg/m3 | vapor or sublimation pressure (382.28 K): 101.3 ± 10 kPa

CO [methanol]
vapor or sublimation pressure (337.45 K): 101.3 ± 10 kPa
